{"source": "patent US7378436B2", "about": "“Compounds” (Pfizer Inc., priority 2003, dated 2008)", "key": {"[1]": {"target": "T1, human serotonin transporter (hSERT) (Homo sapiens, UniProt P31645)", "T1 construct": "expressed in transfected cells; host or cells: HEK-293", "T1 sequence (P31645 whole entry)": "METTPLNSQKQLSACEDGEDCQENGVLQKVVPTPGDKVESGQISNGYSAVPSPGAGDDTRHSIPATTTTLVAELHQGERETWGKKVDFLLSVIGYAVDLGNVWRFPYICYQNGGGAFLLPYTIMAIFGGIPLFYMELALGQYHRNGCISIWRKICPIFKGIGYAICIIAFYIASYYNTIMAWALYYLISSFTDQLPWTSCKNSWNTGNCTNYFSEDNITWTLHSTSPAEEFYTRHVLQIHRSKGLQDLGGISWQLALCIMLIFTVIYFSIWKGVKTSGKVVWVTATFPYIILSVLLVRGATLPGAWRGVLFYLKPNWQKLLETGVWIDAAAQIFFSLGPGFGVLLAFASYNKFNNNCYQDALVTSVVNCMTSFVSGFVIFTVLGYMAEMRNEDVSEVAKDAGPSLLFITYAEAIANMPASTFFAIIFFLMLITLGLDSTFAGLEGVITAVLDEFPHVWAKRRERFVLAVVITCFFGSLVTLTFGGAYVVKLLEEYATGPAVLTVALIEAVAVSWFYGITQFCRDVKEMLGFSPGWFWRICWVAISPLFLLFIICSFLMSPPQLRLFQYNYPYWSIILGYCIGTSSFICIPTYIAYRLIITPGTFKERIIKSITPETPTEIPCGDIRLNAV", "experiment": "Inhibition of 3H-serotonin uptake in HEK-293 cells expressing hSERT", "type": "cell-based", "details": "HEK-293 cells with hSERT; 3H-5HT 50 nM; 5 min incubation at 25° C.; read-out: SRI IC50", "description": "(§1) The compounds were tested for biological activity by their ability to inhibit the uptake of serotonin and/or noradrenaline by human serotonin and/or noradrenaline transporters as follows.\n(§2) (i) Cell Culture • Human embryonic kidney cells (HEK-293) stably transfected with either the human serotonin transporter (hSERT), noradrenaline transporter (hNET) or dopamine transporter (hDAT) were cultured under standard cell culture techniques (cells were grown at 37° C. and 5% CO2in either Dulbecco's Modified Eagle's Medium (DMEM) culture media supplemented with 10% dialysed foetal calf serum (FCS), 2 mM L-glutamine and 250 μg/ml geneticin (hSERT and hNET cells) or DMEM-culture media supplemented with 5% FCS, 5% new-born calf serum, 2 mM L-glutamine and […] (hDAT cells)). Prior to assay, cells were harvested by dissociation using cell dissociation solution (Sigma) and centrifugation, and resuspended in standard assay buffer (see below) at a viable cell density of 750,000 cells/ml.\n(§3) (i) Determination of Inhibitor Potency • All test compounds were dissolved in 100% DMSO at 4 mM and diluted down in 1% DMSO in water to give appropriate test concentrations. Assays were carried out in 96-well filter bottom plates. Cells expressing the appropriate human transporter protein (75,000 cells/assay well) were pre-incubated at 25° C. in standard assay buffer containing either test compound, a standard inhibitor (positive control) or compound vehicle (DMSO in water; final DMSO concentration was 0.1% in each assay well) for 5 minutes. Reactions were started by addition of either ^3H-serotonin, ^3H-noradrenaline or ^3H-dopamine substrates. All reactions were carried out at 25° C. in a shaking incubator. Incubation times were 5 minutes for the hSERT and hDAT assays and 15 minutes for the hNET assay. Reactions were terminated by addition of ice-cold wash buffer (see below), followed by filtration of the assay mixture using a vacuum manifold and rapid washing with icecold wash buffer. The quantity of ^3H-substrate incorporated into the cells was then quantified: Filtered/washed assay plates were dried at 45° C. for 1 hour, scintillation fluid added, and radioactivity measured by scintillation counting. Potency of test compounds was quantified as IC50 values (concentration of test compound required to inhibit the specific uptake of radiolabelled substrate into the cells by 50% relative to maximum (compound vehicle only) and minimum (complete inhibition by standard inhibitor) responses).\n(§4) (iii) Standard Assay Buffer Composition: • Tris(hydroxymethyl)amino methane hydrochloride (26 mM) • NaCl (124 mM) • KCl (4.5 mM) • KH2PO4 (1.2 mM) • MgCl2.6H2O (1.3 mM) • Ascorbic acid (1.136 mM) • Glucose (5.55 mM) • pH 7.40 • CaCl2 (2.8 mM) • Pargyline (100 μM) • Note: The pH of the buffer was adjusted to 7.40 with 1 M NaOH before addition of CaCl2 and pargyline. • Wash Buffer Composition: • Tris(hydroxymethyl)methylamine (26 mM) • NaCl (124 mM) • KCl (4.5 mM) • KH2PO4 (1.2 mM) • MgCl2.6H2O (1.3 mM) • Ascorbic acid (1.136 mM) • pH 7.40 at 4° C. with 6M HCl\n(§5) (iv) Summary of Assay Parameters"}, "[2]": {"target": "T2, human noradrenaline transporter (hNET) (Homo sapiens, UniProt P23975)", "T2 construct": "expressed in transfected cells; host or cells: HEK-293", "T2 sequence (P23975 whole entry)": "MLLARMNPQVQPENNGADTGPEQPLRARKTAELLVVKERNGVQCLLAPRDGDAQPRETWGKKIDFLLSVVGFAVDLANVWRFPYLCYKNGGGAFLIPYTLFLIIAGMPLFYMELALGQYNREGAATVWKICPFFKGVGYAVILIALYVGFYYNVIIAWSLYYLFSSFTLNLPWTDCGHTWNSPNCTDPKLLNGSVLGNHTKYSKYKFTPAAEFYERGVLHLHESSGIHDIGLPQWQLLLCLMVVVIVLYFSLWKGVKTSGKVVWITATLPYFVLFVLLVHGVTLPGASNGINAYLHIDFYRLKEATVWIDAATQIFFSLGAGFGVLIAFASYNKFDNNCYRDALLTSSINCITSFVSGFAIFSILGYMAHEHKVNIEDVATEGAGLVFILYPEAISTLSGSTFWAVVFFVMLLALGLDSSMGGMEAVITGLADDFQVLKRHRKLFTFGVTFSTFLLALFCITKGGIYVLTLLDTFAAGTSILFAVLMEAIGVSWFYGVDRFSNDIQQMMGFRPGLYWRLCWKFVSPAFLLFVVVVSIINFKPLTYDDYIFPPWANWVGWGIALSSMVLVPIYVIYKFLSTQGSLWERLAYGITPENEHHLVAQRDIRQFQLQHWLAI", "experiment": "Inhibition of 3H-noradrenaline uptake in HEK-293 cells expressing hNET", "type": "cell-based", "details": "HEK-293 cells with hNET; 3H-noradrenaline 200 nM; 15 min incubation at 25° C.; read-out: NRI IC50", "description": "as §1, §2, §3, §4, §5"}}, "note": "Counter-ions that a name gives are not always drawn."}
{"smiles": "CC(C)CN(C(=O)c1cccc(Cl)c1Cl)[C@H]1CCNC1", "note": "[Example 1, 2,3-Dichloro-N-isobutyl-N-[(3S)-pyrrolidin-3-yl]benzamide citrate]", "values": [{"measurement": "IC50", "setting": "[1]", "result": 13.9, "unit": "nM"}, {"measurement": "IC50", "setting": "[2]", "result": 14.1, "unit": "nM"}]}
{"smiles": "CC(C)CN(C(=O)c1ccc(Cl)cc1Cl)[C@H]1CCNC1", "note": "[Example 2, 2,4-Dichloro-N-isobutyl-N-[(3S)-pyrrolidin-3-yl]benzamide hydrochloride]", "values": [{"measurement": "IC50", "setting": "[1]", "result": 9.7, "unit": "nM"}, {"measurement": "IC50", "setting": "[2]", "result": 28.5, "unit": "nM"}]}
{"smiles": "Cc1cccc(C(=O)N(CC(C)C)[C@H]2CCNC2)c1Cl", "note": "[Example 3, 2-Chloro-3-methyl-N-isobutyl-N-[(3S)-pyrrolidin-3-yl]benzamide]", "values": [{"measurement": "IC50", "setting": "[1]", "result": 22.3, "unit": "nM"}, {"measurement": "IC50", "setting": "[2]", "result": 21.2, "unit": "nM"}]}
{"smiles": "Cc1c(F)cccc1C(=O)N(CC(C)C)[C@H]1CCNC1", "note": "[Example 4, 3-Fluoro-2-methyl-N-isobutyl-N-[(3S)-pyrrolidin-3-yl]benzamide]", "values": [{"measurement": "IC50", "setting": "[1]", "result": 18.8, "unit": "nM"}, {"measurement": "IC50", "setting": "[2]", "result": 45.9, "unit": "nM"}]}
{"smiles": "COc1cccc(C(=O)N(CC(C)C)[C@H]2CCNC2)c1C", "note": "[Example 5, 3-Methoxy-2-methyl-N-isobutyl-N-[(3S)-pyrrolidin-3-yl]benzamide]", "values": [{"measurement": "IC50", "setting": "[1]", "result": 10.9, "unit": "nM"}, {"measurement": "IC50", "setting": "[2]", "result": 32.9, "unit": "nM"}]}
{"smiles": "CC(C)CN(C(=O)c1cccc(Cl)c1)[C@H]1CCNC1", "note": "[Example 6, 3-Chloro-N-isobutyl-N-[(3S)-pyrrolidin-3-yl]benzamide]", "values": [{"measurement": "IC50", "setting": "[1]", "result": 45.2, "unit": "nM"}, {"measurement": "IC50", "setting": "[2]", "result": 56.9, "unit": "nM"}]}
{"smiles": "CC(C)CN(C(=O)c1ccc(Cl)cc1)[C@H]1CCNC1", "note": "[Example 7, 4-Chloro-N-isobutyl-N-[(3S)-pyrrolidin-3-yl]benzamide]", "values": [{"measurement": "IC50", "setting": "[1]", "result": 5.7, "unit": "nM"}, {"measurement": "IC50", "setting": "[2]", "result": 55.4, "unit": "nM"}]}
{"smiles": "CC(C)CN(C(=O)c1ccc(Cl)c(Cl)c1)[C@H]1CCNC1", "note": "[Example 8, 3,4-Dichloro-N-isobutyl-N-[(3S)-pyrrolidin-3-yl]benzamide]", "values": [{"measurement": "IC50", "setting": "[1]", "result": 7.5, "unit": "nM"}, {"measurement": "IC50", "setting": "[2]", "result": 16.7, "unit": "nM"}]}
{"smiles": "O=C(c1ccccc1)N(Cc1ccc2ccccc2c1)[C@H]1CCNC1", "note": "[Example 9, N-(2-Naphthylmethyl)-N-[(3S)-pyrrolidin-3-yl]benzamide hydrochloride]", "values": [{"measurement": "IC50", "setting": "[1]", "result": 5.7, "unit": "nM"}, {"measurement": "IC50", "setting": "[2]", "result": 14, "unit": "nM"}]}
{"smiles": "O=C(c1ccccc1)N(Cc1ccc2ccccc2c1)[C@@H]1CCNC1", "note": "[Example 10, N-(2-Naphthylmethyl)-N-[(3R)-pyrrolidin-3-yl]benzamide hydrochloride]", "values": [{"measurement": "IC50", "setting": "[1]", "result": 7.6, "unit": "nM"}, {"measurement": "IC50", "setting": "[2]", "result": 7.7, "unit": "nM"}]}
{"smiles": "CC(C)CN(C(=O)c1ccc2ccccc2c1)[C@H]1CCNC1", "note": "[Example 11, N-Isobutyl-N-[(3S)-pyrrolidin-3-yl]-2-naphthamide hydrochloride]", "values": [{"measurement": "IC50", "setting": "[1]", "result": 3.2, "unit": "nM"}, {"measurement": "IC50", "setting": "[2]", "result": 17, "unit": "nM"}]}
{"smiles": "CCCCN(C(=O)c1cccc2ccccc12)[C@H]1CCNC1", "note": "[Example 12, N-Butyl-N-[(3S)-pyrrolidin-3-yl]-1-naphthamide hydrochloride]", "values": [{"measurement": "IC50", "setting": "[1]", "result": 21.5, "unit": "nM"}, {"measurement": "IC50", "setting": "[2]", "result": 26.3, "unit": "nM"}]}
{"smiles": "O=C(c1ccc(Cl)cc1)N(Cc1ccc(Cl)c(Cl)c1)[C@@H]1CCNC1", "note": "[Example 13, 4-Chloro-N-(3,4-dichlorobenzyl)-N-[(3R)-pyrrolidin-3-yl]benzamide hydrochloride]", "values": [{"measurement": "IC50", "setting": "[1]", "result": 8.8, "unit": "nM"}, {"measurement": "IC50", "setting": "[2]", "result": 3.1, "unit": "nM"}]}
{"smiles": "O=C(c1ccc(Cl)cc1)N(Cc1cccc(Cl)c1Cl)[C@@H]1CCNC1", "note": "[Example 14, 4-Chloro-N-(2,3-dichlorobenzyl)-N-[(3R)-pyrrolidin-3-yl]benzamide hydrochloride]", "values": [{"measurement": "IC50", "setting": "[1]", "result": 43, "unit": "nM"}, {"measurement": "IC50", "setting": "[2]", "result": 57.1, "unit": "nM"}]}
{"smiles": "CC(C)CN(C(=O)c1cc(F)c(Cl)cc1Cl)[C@H]1CCNC1", "note": "[Example 15, 2,4-Dichloro-5-fluoro-N-isobutyl-N-[(3S)-pyrrolidin-3-yl]benzamide hydrochloride]", "values": [{"measurement": "IC50", "setting": "[1]", "result": 17.5, "unit": "nM"}, {"measurement": "IC50", "setting": "[2]", "result": 71.6, "unit": "nM"}]}
